According to PubChem BioAssay AID2683 (Broad Institute, 2010):
Several values for one entry are separate records, joined by “and”; a condition that tells them apart may be missing. Equal values may be shown once. Activity calls are given as the source filed them.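 The calls were made as follows: active = rising-signal curve whose EC50 is at most tenfold above the top concentration tested; inconclusive = flat fit with activity between 30% and 70%, or invalid fit; inactive = the rest.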

System: S. cerevisiae SKY197-pL101 polyadenylation reporter, beta-gal luminescence, 9 h
Test: yeast polyadenylation reporter signal increase, dose response, polyadenylation inhibitor project, S. cerevisiae SKY197-pL101, beta-gal luminescence (AID 2683)

| SMILES | EC50 |
| --- | --- |
| N#C/C(=C\c1ccco1)c1nc2ccccc2[nH]1 | > 12 µM (inactive) |
| Cc1ccc2nc(/C(C#N)=C/c3ccc(C)o3)[nH]c2c1 | > 12 µM (inactive) |
| N#C/C(=C\c1cccc([N+](=O)[O-])c1)c1nc2ccccc2[nH]1 | > 12 µM (inactive) |

Second part, the compound after the results:

| EC50 | SMILES |
| --- | --- |
| 10.8 µM | N#C/C(=C\c1ccc([N+](=O)[O-])o1)c1nc2ccccc2[nH]1 |
| 8.25 µM | N#C/C(=C/c1ccc([N+](=O)[O-])o1)c1nc2ccccc2[nH]1 |
| 6.5 µM and 7.25 µM | Cc1ccc2nc(/C(C#N)=C/c3ccc([N+](=O)[O-])o3)[nH]c2c1 |
| 5.83 µM | Cc1cccc2[nH]c(/C(C#N)=C/c3ccc([N+](=O)[O-])o3)nc12 |
